Measured values from the supplement of paper PMC10307832.

How the values were obtained:
Assay in all cases: relative viability (nuclei count vs DMSO), 5 days (fraction); higher = more cells survive
JZL-184 + Decitabine = compound: C1CN(CCC1C(C2=CC3=C(C=C2)OCO3)(C4=CC5=C(C=C4)OCO5)O)C(=O)OC6=CC=C(C=C6)[N+](=O)[O-] [JZL-184] + Nc1ncn([C@H]2C[C@H](O)[C@@H](CO)O2)c(=O)n1 [Decitabine] (partner 2 µM)
Summary of the method: (§1)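 Relative viability divides the nuclei count in treated wells by that in vehicle wells. Lung cancer cell lines were seeded in 1536-well plates, dosed by pin tool the next day, and fixed and stained after 5 days in one step with final 0.05% Triton X-100, 1% formaldehyde and 1 ug/ml Hoechst. Dosing was a single drug or a fixed anchor-drug dose plus five library-drug doses (not always all listed) in √10 steps, and values are medians of duplicate plates imaged at 4×.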

JZL-184 + OSI-027 = compound: C1CN(CCC1C(C2=CC3=C(C=C2)OCO3)(C4=CC5=C(C=C4)OCO5)O)C(=O)OC6=CC=C(C=C6)[N+](=O)[O-] [JZL-184] + COc1cccc2cc(-c3nc([C@H]4CC[C@H](C(=O)O)CC4)n4ncnc(N)c34)[nH]c12 [OSI-027] (partner 0.5 µM)
Summary of the method: as §1

JZL-184 + Bortezomib = compound: C1CN(CCC1C(C2=CC3=C(C=C2)OCO3)(C4=CC5=C(C=C4)OCO5)O)C(=O)OC6=CC=C(C=C6)[N+](=O)[O-] [JZL-184] + CC(C)C[C@H](NC(=O)[C@H](Cc1ccccc1)NC(=O)c1cnccn1)B(O)O [Bortezomib] (partner 0.002 µM)
Summary of the method: as §1

JZL-184 + Crizotinib = compound: C1CN(CCC1C(C2=CC3=C(C=C2)OCO3)(C4=CC5=C(C=C4)OCO5)O)C(=O)OC6=CC=C(C=C6)[N+](=O)[O-] [JZL-184] + C[C@@H](Oc1cc(-c2cnn(C3CCNCC3)c2)cnc1N)c1c(Cl)ccc(F)c1Cl [Crizotinib] (partner 1 µM)
Summary of the method: as §1

JZL-184 + Pemetrexed = compound: C1CN(CCC1C(C2=CC3=C(C=C2)OCO3)(C4=CC5=C(C=C4)OCO5)O)C(=O)OC6=CC=C(C=C6)[N+](=O)[O-] [JZL-184] + Nc1nc2[nH]cc(CCc3ccc(C(=O)N[C@@H](CCC(=O)O)C(=O)O)cc3)c2c(=O)[nH]1 [Pemetrexed] (partner 0.2 µM)
Summary of the method: as §1

Cell Line	relative viability (JZL-184 + Decitabine; first compound 0.04 µM)	relative viability (JZL-184 + Decitabine; first compound 0.4 µM)	relative viability (JZL-184 + Decitabine; first compound 1.265 µM)	relative viability (JZL-184 + Decitabine; first compound 4 µM)	relative viability (JZL-184 + OSI-027; first compound 0.04 µM)	relative viability (JZL-184 + OSI-027; first compound 0.4 µM)	relative viability (JZL-184 + OSI-027; first compound 1.265 µM)	relative viability (JZL-184 + OSI-027; first compound 4 µM)	relative viability (JZL-184 + Bortezomib; first compound 0.04 µM)	relative viability (JZL-184 + Bortezomib; first compound 0.4 µM)	relative viability (JZL-184 + Bortezomib; first compound 1.265 µM)	relative viability (JZL-184 + Bortezomib; first compound 4 µM)	relative viability (JZL-184 + Crizotinib; first compound 0.04 µM)	relative viability (JZL-184 + Crizotinib; first compound 0.4 µM)	relative viability (JZL-184 + Crizotinib; first compound 1.265 µM)	relative viability (JZL-184 + Crizotinib; first compound 4 µM)	relative viability (JZL-184 + Pemetrexed; first compound 0.04 µM)	relative viability (JZL-184 + Pemetrexed; first compound 0.4 µM)	relative viability (JZL-184 + Pemetrexed; first compound 1.265 µM)	relative viability (JZL-184 + Pemetrexed; first compound 4 µM)
LCLC-103H	0.768	0.817	0.815	0.778	0.525	0.528	0.428	0.455	0.992	1.08	0.985	1.02	1.02	0.959	1.02	1	0.495	0.481	0.453	0.477
LOU-NH91	0.814	0.837	0.863	0.749	0.742	0.684	0.788	0.712	0.51	0.419	0.511	0.471	0.757	0.738	0.771	0.769	0.389	0.334	0.381	0.394
LU99A	1	0.902	1.01	0.843	0.327	0.293	0.269	0.284	1.29	1.09	1.32	1.22	0.657	0.529	0.622	0.63	0.162	0.12	0.159	0.124
LXF-289	0.438	0.364	0.353	0.388	0.819	0.776	0.927	0.734	1.01	0.953	1.04	0.933	0.813	0.819	0.765	0.75	0.882	0.779	0.862	0.875
NCI-H23	0.275	–	0.266	0.328	0.529	0.538	0.656	0.65	1.24	0.765	1.21	1.07	0.611	0.444	0.521	0.43	0.772	–	0.704	0.597
NCI-H322M	0.661	0.684	0.678	0.668	0.555	0.488	0.55	0.52	1.15	1.16	1.27	1.27	0.965	0.971	0.886	0.825	0.591	0.604	0.615	0.538
NCI-H441	0.237	0.249	0.188	0.281	0.604	0.541	0.591	0.601	0.379	0.373	0.227	0.591	0.767	0.54	0.793	0.58	0.277	0.248	0.239	0.285
NCI-H460	0.629	0.45	0.463	0.442	1.03	0.678	0.575	0.632	1.83	1.05	1.05	1.11	0.993	0.81	0.839	0.912	0.0624	0.0591	0.0649	0.0648
NCI-H520	0.546	0.545	0.503	0.477	0.233	0.229	0.257	0.213	0.648	0.479	0.582	0.531	0.813	0.707	0.907	0.665	0.782	0.483	0.748	0.684
NCI-H596	1.1	0.96	1.01	0.984	0.749	0.591	0.71	0.696	1.21	0.948	1.17	1.08	1.19	0.955	1.03	1.06	0.543	0.411	0.452	0.48
NCI-H647	0.455	0.302	0.353	0.426	0.625	0.698	0.75	0.51	1.32	0.922	1.14	0.974	1.36	0.956	1	1.02	0.201	0.161	0.209	0.19
NCI-H650	0.308	0.319	0.317	0.306	0.603	0.525	0.576	0.542	0.912	0.801	1.04	0.738	0.872	0.73	0.814	0.685	0.894	0.924	1.04	1.01
NCI-H661	0.624	0.526	0.518	0.537	0.806	0.638	0.761	0.53	0.763	0.803	0.796	0.889	0.933	–	0.935	0.928	0.983	0.858	0.931	0.898
NCI-H838	0.551	0.475	0.465	0.467	0.434	0.368	0.441	0.389	1.13	0.828	0.819	0.636	1.05	0.885	0.941	0.76	0.254	0.236	0.241	0.256
NCI-H1355	0.349	0.34	0.36	0.347	0.393	0.421	0.494	0.386	1.28	1.18	1.18	1.18	1.06	1.01	1.22	0.925	1.06	0.945	1.05	1.04
NCI-H1437	0.649	0.611	0.585	0.561	0.88	0.849	0.849	0.866	0.594	0.512	0.479	0.373	0.938	0.889	0.888	0.841	0.306	0.322	0.309	0.312
NCI-H1650	0.405	0.464	0.471	0.425	0.674	0.504	0.837	0.608	0.192	0.179	0.228	0.198	1.28	0.995	1.01	0.893	0.341	0.391	0.366	0.354
NCI-H1651	0.667	0.358	0.428	0.623	0.684	0.664	0.855	0.794	0.993	0.954	1	0.999	0.896	0.839	0.895	0.87	0.592	0.362	0.411	0.595
NCI-H1666	0.77	0.557	0.701	0.792	0.974	0.908	0.903	0.866	0.98	0.714	0.868	0.904	1.17	0.983	0.872	0.992	0.802	0.842	0.875	0.865
NCI-H1734	0.536	0.494	0.512	0.501	0.621	0.615	0.718	0.594	1.03	0.842	1.02	0.884	0.806	0.617	0.672	0.701	0.462	0.426	0.419	0.42
NCI-H1755	0.751	0.701	0.71	0.704	0.672	0.699	0.709	0.745	1.13	0.895	0.933	0.859	0.933	0.894	0.835	0.793	0.432	0.367	0.475	0.484
NCI-H1792	0.668	0.503	0.529	0.597	0.683	0.744	0.779	0.62	1.13	0.405	0.954	0.952	1.04	0.713	1	0.97	1.05	0.699	1.1	0.812
NCI-H1915	0.243	0.266	0.272	0.266	0.659	0.604	0.698	0.585	0.992	0.93	1.03	1.03	0.924	0.821	0.902	0.84	0.506	0.485	0.535	0.534
NCI-H1975	0.429	0.368	0.413	0.397	0.842	0.759	0.764	0.654	0.361	0.419	0.358	0.336	1.11	0.901	0.995	0.975	0.307	0.281	0.296	0.263
NCI-H1993	0.572	0.588	0.577	0.559	0.523	0.498	0.497	0.532	1.17	1.14	1.21	1.22	0.956	0.805	0.934	0.903	0.63	0.577	0.619	0.68
NCI-H2009	0.425	0.385	0.363	0.446	0.764	0.574	0.694	0.653	1.2	0.946	1.02	0.938	1.15	1.06	1.02	1.01	1.14	1.03	1.04	0.994
NCI-H2023	0.254	0.225	0.175	0.213	0.407	0.381	0.405	0.317	1.03	0.947	1.01	0.865	0.726	0.626	0.671	0.578	0.281	0.167	0.258	0.227
NCI-H2085	–	0.538	0.521	0.627	0.444	0.592	0.795	0.649	0.914	1.06	1.04	0.91	0.969	0.806	0.808	0.844	–	0.817	0.948	0.882
NCI-H2087	0.271	0.301	0.415	0.237	0.519	0.514	0.579	0.436	0.901	0.811	0.845	0.771	0.928	0.816	0.757	0.93	0.667	0.663	0.631	0.636
NCI-H2126	0.597	0.608	0.558	0.555	0.636	0.64	0.804	0.683	1.13	1.09	1.09	1.15	1.04	1.02	1.06	1.02	0.663	0.66	0.726	0.705
